In PMC5529531, “Engineered isopeptide bond stabilized fibrin inspired nanoscale peptide based sealants for efficient blood clotting” (Scientific Reports, 2017):
Where “and” joins values, the source holds several entries; their conditions need not be identical. Equal values may be shown once.

Test system: platelet-free plasma
Test: Thrombin clotting time experiment with platelet-free plasma
Conditions: 0.35 mL chicken platelet-free plasma at 37 °C + 0.15 mL sealant solution (peptide 1.5 mM in 25 mM PBS pH 7.4, 5 mM CaCl2, 10 µL TG 7 U/mL) or thrombin-calcium reagent; mean ± SD of two independent experiments
Experimental: Plasma was collected by centrifuging whole non-coagulated chicken blood (4500 rpm, 10 min, 4 °C). Thrombin clotting time (Figure S19) experiment was performed by incubating 0.35 mL platelet-free plasma, in a 1.5 mL microcentrifuge tube at 37 °C for 10 min, followed by the addition of the thrombin-calcium reagent, 0.15 mL, maintained at room temperature. The period of clot formation was noted. The same batch of platelet-free plasma was used to determine sealant clotting time. Platelet-free plasma 0.35 mL, was taken in a 1.5 mL microcentrifuge tube incubated at 37 °C followed by addition of 0.15 mL sealant solution. Sealant was prepared by dissolving each peptide in 25 mM PBS buffer, pH 7.4 with 5 mM CaCl2 where final conc. of the peptide was 1.5 mM followed by the addition of 10 µL TG (7 U/1 mL) soln. The period of clot formation was noted. The results are represented as mean ± SD of two independent experiments.
Figure S19. Determination of clotting time of sealants with plasma by thrombin clotting time method. The clotting time in presence of thrombin, sealants 1, 2 and 3 are 32±2, 35±1, 25±1 and 28±2 secs, respectively.

## thrombin: thrombin (bovine plasma), used as thrombin-calcium reagent
  clotting time (thrombin clotting time experiment): 32±2 secs and ~ 32 ± 2 secs
